Data published in publication PMC9910069 (ACS Omega, 2023).

Key:
[1] = target: Electric eel AChE (type-VI-S) (Electrophorus electricus, UniProt O42275); test: Anti-cholinesterase inhibition assay; assay type: biochemical
[2] = target: equine BChE (Equus caballus, UniProt P81908); test: Anti-cholinesterase inhibition assay; assay type: biochemical
equine BChE, sequence (P81908 whole entry): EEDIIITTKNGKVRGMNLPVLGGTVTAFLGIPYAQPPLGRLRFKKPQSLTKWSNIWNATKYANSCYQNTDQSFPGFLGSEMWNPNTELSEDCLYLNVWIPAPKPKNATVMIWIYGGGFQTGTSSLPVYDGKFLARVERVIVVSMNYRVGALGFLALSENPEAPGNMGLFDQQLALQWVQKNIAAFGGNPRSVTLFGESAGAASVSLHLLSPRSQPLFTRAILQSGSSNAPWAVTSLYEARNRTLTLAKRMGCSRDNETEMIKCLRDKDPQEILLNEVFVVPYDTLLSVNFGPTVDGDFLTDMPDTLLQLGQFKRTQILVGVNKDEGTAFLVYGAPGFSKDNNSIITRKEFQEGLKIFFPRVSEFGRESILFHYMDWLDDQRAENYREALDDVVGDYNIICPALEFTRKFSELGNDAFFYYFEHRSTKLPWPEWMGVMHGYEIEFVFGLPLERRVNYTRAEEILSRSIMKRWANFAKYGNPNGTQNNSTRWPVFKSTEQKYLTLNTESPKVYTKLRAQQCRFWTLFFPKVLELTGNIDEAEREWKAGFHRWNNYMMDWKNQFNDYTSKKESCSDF

Electric eel AChE (type-VI-S), sequence (O42275 24-633): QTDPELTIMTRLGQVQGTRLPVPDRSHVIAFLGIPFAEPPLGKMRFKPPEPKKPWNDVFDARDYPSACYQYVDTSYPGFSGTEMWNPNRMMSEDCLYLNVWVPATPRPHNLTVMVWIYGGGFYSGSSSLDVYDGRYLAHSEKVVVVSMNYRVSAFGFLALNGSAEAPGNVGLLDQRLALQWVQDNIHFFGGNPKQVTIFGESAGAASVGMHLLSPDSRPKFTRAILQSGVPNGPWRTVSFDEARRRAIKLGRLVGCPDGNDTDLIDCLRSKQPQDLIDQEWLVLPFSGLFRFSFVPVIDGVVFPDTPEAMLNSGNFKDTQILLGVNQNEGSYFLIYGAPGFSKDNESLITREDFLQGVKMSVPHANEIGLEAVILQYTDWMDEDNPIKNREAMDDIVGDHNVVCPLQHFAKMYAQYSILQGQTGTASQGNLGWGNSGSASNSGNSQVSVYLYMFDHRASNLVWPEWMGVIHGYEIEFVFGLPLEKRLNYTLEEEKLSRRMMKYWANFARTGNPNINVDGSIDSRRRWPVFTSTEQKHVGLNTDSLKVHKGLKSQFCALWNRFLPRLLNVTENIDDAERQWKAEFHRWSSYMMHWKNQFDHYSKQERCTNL

CCOc1ccc(C=NNC(=S)NCC(=O)c2cccc(C)c2)cc1 [Compound 5, 2-(4-Ethoxybenzylidene)-N-(2-oxo-2-(m-tolyl)ethyl)hydrazine-1-carbothioamide]
IC50 [1]: 295.12 ± 0.12 µM

CCOc1ccc(C=NNC(=S)NCC(=O)c2ccc(Br)cc2)cc1 [Compound 6, N-(2-(4-Bromophenyl)-2-oxoethyl)-2-(4-ethoxybenzylidene)hydrazine-1-carbothioamide]
IC50 [1]: 160.04 ± 0.02 µM
IC50 [2]: 190.21 ± 0.13 µM

CCOc1ccc(C=NNC(=S)NCC(=O)c2ccc(Cl)cc2)cc1 [Compound 7, N-(2-(4-Chlorophenyl)-2-oxoethyl)-2-(4-ethoxybenzylidene)hydrazine-1-carbothioamide]
IC50 [1]: 140.52 ± 0.11 µM

CCOc1ccc(C=NNC(=S)NCC(=O)c2ccccc2)cc1 [Compound 8, 2-(4-Ethoxybenzylidene)-N-(2-oxo-2-phenylethyl)hydrazine-1-carbothioamide]
IC50 [1]: 220.22 ± 0.14 µM
IC50 [2]: 260.21 ± 0.23 µM

CCOc1ccc(C=NNC(=S)NCC(=O)c2ccccc2O)cc1 [Compound 9, 2-(4-Ethoxybenzylidene)-N-(2-(2-hydroxyphenyl)-2-oxoethyl)hydrazine-1-carbothioamide]
IC50 [2]: 147.2 ± 0.09 µM

CCOc1ccc(C=NNC(=S)NCC(=O)c2ccc(Cl)cc2Cl)cc1 [Compound 10, N-(2-(2,4-Dichlorophenyl)-2-oxoethyl)-2-(4-ethoxybenzylidene)hydrazine-1-carbothioamide]
IC50 [1]: 275.71 ± 0.12 µM

Cc1ccc(C(=O)CNC(=S)NN=Cc2ccc([N+](=O)[O-])cc2)cc1 [Compound 12, 2-(4-Nitrobenzylidene)-N-(2-oxo-2-(p-tolyl)ethyl)hydrazine-1-carbothioamide]
IC50 [1]: 280.24 ± 0.21 µM
IC50 [2]: 260.38 ± 0.25 µM

O=C(CNC(=S)NN=Cc1ccc([N+](=O)[O-])cc1)c1ccccc1Br [Compound 17, N-(2-(2-Bromophenyl)-2-oxoethyl)-2-(4-nitrobenzylidene)hydrazine-1-carbothioamide]
IC50 [1]: 114.6 ± 0.15 µM
IC50 [2]: 150.4 ± 0.18 µM
